Laboratory results: ChEMBL document CHEMBL1138679, “Three-dimensional quantitative structure-activity relationship analysis of a set of Plasmodium falciparum dihydrofolate reductase inhibitors using a pharmacophore generation approach” (J Med Chem, 2004)
pKi: −log10 of the molar value.

Target: Bifunctional dihydrofolate reductase-thymidylate synthase (Plasmodium falciparum K1, UniProt P13922)
Experiment: Inhibition constant against Plasmodium falciparum dihydrofolate reductase

Bifunctional dihydrofolate reductase-thymidylate synthase, sequence (P13922 whole entry): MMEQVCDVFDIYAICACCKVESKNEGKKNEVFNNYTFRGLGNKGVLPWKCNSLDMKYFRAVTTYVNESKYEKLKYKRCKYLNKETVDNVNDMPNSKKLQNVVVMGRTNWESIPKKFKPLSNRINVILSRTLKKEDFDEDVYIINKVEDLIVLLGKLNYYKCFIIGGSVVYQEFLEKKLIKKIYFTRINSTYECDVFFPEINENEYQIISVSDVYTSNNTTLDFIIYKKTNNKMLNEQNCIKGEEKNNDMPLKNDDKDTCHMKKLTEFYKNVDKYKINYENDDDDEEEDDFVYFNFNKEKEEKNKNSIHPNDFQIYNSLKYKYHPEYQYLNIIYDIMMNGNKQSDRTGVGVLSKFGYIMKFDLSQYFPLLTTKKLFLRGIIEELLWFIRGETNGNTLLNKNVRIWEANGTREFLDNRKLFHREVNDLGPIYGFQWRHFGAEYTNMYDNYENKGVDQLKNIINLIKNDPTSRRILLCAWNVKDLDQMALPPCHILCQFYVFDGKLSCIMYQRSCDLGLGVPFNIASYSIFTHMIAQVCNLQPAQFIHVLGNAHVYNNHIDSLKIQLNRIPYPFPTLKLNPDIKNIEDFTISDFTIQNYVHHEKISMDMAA

Structure (SMILES) | pKi
CC1(C)N=C(N)N=C(N)N1OCCCOc1cc(Cl)c(Cl)cc1Cl | 8.96
Cc1cc2nc3n(c2cc1C)C(C)(C)NC(N)=N3 | 6.74
N=C(NO)c1ccc(Oc2cc(Cl)cc(Cl)c2)c([N+](=O)[O-])c1 | 5.77
Cc1nc(N)nc(N)c1-c1ccc(Cl)cc1 | 9.08
COC(=O)CCCc1nc(N)nc(N)c1-c1ccccc1 | 8.00
Cc1nc(N)nc(N)c1-c1ccccc1 | 6.96
Nc1ncc(-c2cccc(Cl)c2)c(N)n1 | 7.12
Nc1ncc(-c2ccccc2)c(N)n1 | 7.00
Nc1nc(N)c(-c2ccc(Cl)cc2)c(CCCc2ccccc2)n1 | 9.13
CCc1nc(N)nc(N)c1-c1ccc(C)cc1 | 8.96
CCc1nc(N)nc(N)c1-c1ccc(C(C)(C)C)cc1 | 9.11
Nc1nc(N)c(-c2cccc(Cl)c2)c(CCCc2ccccc2)n1 | 7.38
Cc1nc(N)nc(N)c1-c1cccc(Cl)c1 | 7.08
CCc1nc(N)nc(N)c1-c1ccc(OCc2ccc(Cl)cc2Cl)c(OC)c1 | 8.02
CCc1nc(N)nc(N)c1-c1ccccc1 | 7.00
CCOc1c(Br)cc(-c2c(N)nc(N)nc2CC)cc1Br | 7.43
CCc1nc(N)nc(N)c1-c1ccc(Cl)cc1Cl | 9.04
Nc1nc(N)c(-c2cccc(Cl)c2)c(CCOCCCOc2ccccc2)n1 | 7.89
COC(=O)CCCc1nc(N)nc(N)c1-c1ccc(Cl)cc1 | 9.85
COc1ccc(CCCc2nc(N)nc(N)c2-c2cccc(Cl)c2)cc1 | 7.96
CCc1nc(N)nc(N)c1-c1cccc(Cl)c1 | 7.14
Nc1ncc(-c2ccc(Cl)cc2)c(N)n1 | 9.13
CCc1nc(N)nc(N)c1-c1ccc(-c2ccccc2)cc1 | 7.05
CCc1nc(N)nc(N)c1-c1ccc(OC)cc1 | 8.89
CCc1nc(N)nc(N)c1-c1ccc(Br)cc1 | 9.08

Structure (SMILES) | pKi
CCc1nc(N)nc(N)c1-c1cccc(OC)c1 | 7.44
C/N=C(\S)NNC(=O)c1cccn(Cc2cccc(Cl)c2)c1=O | 6.05
Cc1[nH]c(N)cc2nc3ccccc3c1-2 | 5.64
N/C(=N/O)c1ccc(Oc2c(Cl)cncc2Cl)cc1 | 6.03
CCCCCCc1nc(N)nc(N)c1-c1ccccc1 | 8.00
CCc1nc(N)nc(N)c1-c1ccc2c(c1)OCO2 | 7.14
CC1(C)N=C(N)N=C(N)N1c1ccc(Br)cc1 | 8.92
CC1(C)N=C(N)N=C(N)N1c1ccccc1 | 6.85
CC1(C)N=C(N)N=C(N)N1c1ccc(F)cc1 | 6.77
NC1=NCN(c2ccc(Cl)cc2)C(N)=N1 | 9.08
NC1=NCN(c2ccccc2)C(N)=N1 | 7.07
NC1=NCN(c2ccc(F)cc2)C(N)=N1 | 7.06
N=C(S)N/N=C/c1ccc(Oc2ncc(C(F)(F)F)cc2Cl)cc1 | 5.05
N=C(NO)c1ccc(CNC(=O)c2ccc(Cl)cc2)cc1 | 5.82
NNc1nc2ccccc2nc1NN | 5.07
N/C(=N\O)c1cccc(CS(=O)(=O)c2ccc(Cl)cc2)c1 | 6.10
C=CCNC(=S)NNC(=O)c1cccn(Cc2cccc(Cl)c2)c1=O | 6.39
COC(=O)c1sccc1-c1ccc(/C(C)=N/NC(N)=O)o1 | 4.70
N/N=C(\S)Nc1ccc(OCc2ccccc2)cc1 | 5.70
C/C(=N\N=C(/N)S)c1ccc(Oc2c(Cl)cncc2Cl)cc1 | 5.85
CC1(C)N=C(N)N=C(N)N1c1ccc(Cl)c(Cl)c1 [CHLORCYCLOGUANIL] | 8.96
CC1(C)N=C(N)N=C(N)N1c1ccc(Cl)cc1 [CYCLOGUANIL] | 8.96
CCc1nc(N)nc(N)c1-c1ccc(Cl)c(Cl)c1 [ETOPRINE] | 9.10
NC(=S)N/N=C/c1ccccc1 [PHENYLTHIOSEMICARBAZONE] | 4.51
